Assay results from US20040248887A1, “Inhibitors of cathepsin S” (IRM LLC, priority 2003, published 2004).

Target: Cathepsin S (Homo sapiens, UniProt P25774)
Test: Cathepsin S inhibition, fluorogenic peptide substrate kinetic assay
Format: biochemical
Conditions: Table II; Cathepsin S inhibition constant, pH5.5; read-out: Ki Cat. S
Outline: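 Ki values derive from apparent constants fitted to progress curves, corrected for competition with substrate via [S] and Km. Kinetics were monitored at 380 nm excitation/450 nm emission, after substrate addition (Ac-HPVK-ACC, 50 μM final) to start the reaction.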

Sequence of Cathepsin S (P25774 115-331, species assumed): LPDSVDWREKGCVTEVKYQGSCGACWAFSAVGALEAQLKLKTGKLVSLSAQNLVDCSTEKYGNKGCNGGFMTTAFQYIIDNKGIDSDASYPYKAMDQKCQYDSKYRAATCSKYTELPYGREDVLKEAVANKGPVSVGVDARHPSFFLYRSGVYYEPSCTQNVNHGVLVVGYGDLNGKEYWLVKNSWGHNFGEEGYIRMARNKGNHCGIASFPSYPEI

`Cc1cccc(C(=O)N[C@@H](CC(C)C)C(=O)N[C@@H](CCC(N)=O)CN2CCc3cc(F)ccc32)c1` [Compound 44, (S,S)-N-{1-[3-Carbamoyl-1-(5-fluoro-2,3-dihydro-indol-1-ylmethyl)-propylcarbamoyl]-3-methyl-butyl}-3-methyl-benzamide] and `COc1cccc(C(=O)N[C@@H](CC(C)(C)C)C(=O)N[C@@H](CC#N)CN2CCc3cc(F)ccc32)c1` [Compound 165, N-{1-(S)-[2-Cyano-1-(S)-(5-fluoro-2,3-dihydro-indol-1-ylmethyl)-ethylcarbamoyl]-3,3-dimethyl-butyl}-3-methoxy-benzamide] cannot be ordered by Ki: under 100 nM for the first, under 100 nM for the second.

`COc1ccc(NC[C@@H](C)NC(=O)[C@H](CCC2CCCCC2)NC(=O)c2cc3ccccc3[nH]2)cc1` [Compound 25, 1H-Indole-2-carboxylic acid {3-cyclohexyl-(1S)-[2-(4-methoxy-phenylamino)-(1R)-methyl-ethylcarbamoyl]-propyl}-amide] and `COc1ccc(NC[C@H](C)NC(=O)[C@H](CCC2CCCCC2)NC(=O)c2ccc(-c3cccc(C(F)(F)F)c3)o2)cc1` [Compound 27, 5-(3-Trifluoromethyl-phenyl)-furan-2-carboxylic acid {3-cyclohexyl-(1S)-[2-(4-methoxy-phenylamino)-(1S)-methyl-ethylcarbamoyl]-propyl}-amide] cannot be ordered by Ki: under 10000 nM for the first, under 100 nM for the second.

`COc1cccc(C(=O)N[C@@H](CCC2CCCCC2)C(=O)NCCN2CCc3ccc(F)cc32)c1` [Compound 10, (S)-N-{3-Cyclohexyl-1-[2-(6-fluoro-2,3-dihydro-indol-1-yl)-ethylcarbamoyl]-propyl}-3-methoxy-benzamide] and `COc1cccc(C(=O)N[C@@H](CCC2CCCCC2)C(=O)NCCN2CCc3cccc(F)c32)c1` [Compound 11, (S)-N-{3-Cyclohexyl-1-[2-(7-fluoro-2,3-dihydro-indol-1-yl)-ethylcarbamoyl]-propyl}-3-methoxy-benzamide] cannot be ordered by Ki: under 10000 nM for the first, under 10000 nM for the second.

`Cc1nnc(-c2cccc(S(=O)(=O)N[C@@H](CC3CCCCC3)C(=O)NCCN3CCc4cc(F)ccc43)c2)o1` [Compound 233, (S)-3-Cyclohexyl-N-[2-(5-fluoro-2,3-dihydro-indol-1-yl)-ethyl]-2-[3-(5-methyl-[1,3,4]oxadiazol-2-yl)-benzenesulfonylamino]-propionamide] and `O=C(NCCN1CCc2cc(F)ccc21)[C@H](CC1CCCCC1)NS(=O)(=O)c1ccc(Oc2ccc(F)cc2)cc1` [Compound 236, (S)-3-Cyclohexyl-N-[2-(5-fluoro-2,3-dihydro-indol-1-yl)-ethyl]-2-[4-(4-fluoro-phenoxy)-benzenesulfonylamino]-propionamide] cannot be ordered by Ki: under 100 nM for the first, under 1000 nM for the second.

`O=C(N[C@@H](CC1CCCC1)C(=O)NCCN1CCc2cc(F)ccc21)c1ccc(-c2cccc(C(F)(F)F)c2)o1` [Compound 200, N-((S)-1-(2-(5-fluoroindolin-1-yl)ethylcarbamoyl)-2-cyclopentylethyl)-5-(3-(trifluoromethyl)phenyl)furan-2-carboxamide] and `Cc1cc(C(=O)N[C@@H](CC2CCCCC2)C(=O)NCCN2CCc3cc(F)ccc32)c(C(F)(F)F)o1` [Compound 78, 5-Methyl-2-trifluoromethyl-furan-3-carboxylic acid (S)-{2-cyclohexyl-1-[2-(5-fluoro-2,3-dihydro-indol-1-yl)-ethylcarbamoyl]-ethyl}-amide] cannot be ordered by Ki: under 100 nM for the first, under 100 nM for the second.

`C[C@@H](CNc1ccc(OC(F)(F)F)cc1)NC(=O)[C@H](CC1CCCCC1)NC(=O)[C@H]1CCCO1` [Compound 30, Tetrahydrofuran-2-(R)-carboxylic acid {2-cyclohexyl-1-(S)-[1-(S)-methyl-2-(4-trifluoromethoxy-phenylamino)-ethylcarbamoyl]-ethyl}-amide] and `C[C@@H](CNc1ccc(OC(F)(F)F)cc1)NC(=O)[C@H](CC1CCCCC1)NC(=O)O[C@@H]1CCNC1` [Compound 187, {2-Cyclohexyl-1-(S)-[1-(S)-methyl-2-(4-trifluoromethoxy-phenylamino)-ethylcarbamoyl]-ethyl}-carbamic acid pyrrolidin-3-(R)-yl ester] cannot be ordered by Ki: under 100 nM for the first, under 10000 nM for the second.

`C[C@@H](CN1CC(C)(C)c2cc(F)ccc21)NC(=O)[C@H](CC(C)(C)C)NC(=O)C1CCOCC1` [Compound 270, Tetrahydro-pyran-4-carboxylic acid {1-(S)-[2-(5-fluoro-3,3-dimethyl-2,3-dihydro-indol-1-yl)-1-(S)-methyl-ethylcarbamoyl]-3,3-dimethyl-butyl}-amide] and `C[C@@H](CN1CCc2cc(F)ccc21)NC(=O)[C@H](CC(C)(C)C)NC(=O)C1CC1` [Compound 177, Cyclopropanecarboxylic acid {1-(S)-[2-(5-fluoro-2,3-dihydro-indol-1-yl)-1-(S)-methyl-ethylcarbamoyl]-3,3-dimethyl-butyl}-amide] cannot be ordered by Ki: under 1000 nM for the first, under 100 nM for the second.

`COCC(=O)N[C@@H](CC1CCCCC1)C(=O)N[C@@H](C)CNc1ccc(OC(F)(F)F)cc1` [Compound 124, 3-Cyclohexyl-2-(S)-(2-methoxy-acetylamino)-N-[1-(S)-methyl-2-(4-trifluoromethoxy-phenylamino)-ethyl]-propionamide] and `C[C@@H](CNc1ccc(OC(F)(F)F)cc1)NC(=O)[C@H](CC1CCCCC1)NC(=O)OC1CCS(=O)(=O)CC1` [Compound 186, (S,S)-{2-Cyclohexyl-1-[1-methyl-2-(4-trifluoromethoxy-phenylamino)-ethylcarbamoyl]-ethyl}-carbamic acid 1,1-dioxo-hexahydro-1λ^6-thiopyran-4-yl ester] cannot be ordered by Ki: under 100 nM for the first, under 100 nM for the second.

`COc1cccc(C(=O)N[C@@H](CCC2CCCCC2)C(=O)NCCN2CCc3c(OC)cccc32)c1` [Compound 15, (S)-N-{3-Cyclohexyl-1-[2-(4-methoxy-2,3-dihydro-indol-1-yl)-ethylcarbamoyl]-propyl}-3-methoxy-benzamide] and `COc1cccc(C(=O)N[C@@H](CCC2CCCCC2)C(=O)N[C@@H](CCCCN)CN2CCc3cc(F)ccc32)c1` [Compound 167, N-{1-(S)-[5-Amino-1-(S)-(5-fluoro-2,3-dihydro-indol-1-ylmethyl)-pentylcarbamoyl]-3-cyclohexyl-propyl}-3-methoxy-benzamide] cannot be ordered by Ki: under 10000 nM for the first, under 100 nM for the second.

`Cc1cc(NC[C@H](C)NC(=O)[C@H](CC2CCCCC2)NC(=O)c2ccc(-c3cccc(F)c3)o2)sn1` [Compound 267, 5-(3-Fluoro-phenyl)-furan-2-carboxylic acid {2-cyclohexyl-1-(S)-[1-(S)-methyl-2-(3-methyl-isothiazol-5-ylamino)-ethylcarbamoyl]-ethyl}-amide] and `C[C@@H](CNc1cc(F)cc(F)c1)NC(=O)[C@H](CC1CCCCC1)NC(=O)c1ccc(-c2cccc(F)c2)o1` [Compound 87, 5-(3-Fluoro-phenyl)-furan-2-carboxylic acid {2-cyclohexyl-1-(S)-[2-(3,5-difluoro-phenylamino)-1-(S)-methyl-ethylcarbamoyl]-ethyl}-amide] cannot be ordered by Ki: under 1000 nM for the first, under 100 nM for the second.

`CC(=O)N1CCC(Oc2ccc(C(=O)N[C@@H](CC3CCCCC3)C(=O)NCCN3CCc4cc(F)ccc43)cc2)CC1` [Compound 69, 4-(1-Acetyl-piperidin-4-yloxy)-N-(S)-{2-cyclohexyl-1-[2-(5-fluoro-2,3-dihydro-indol-1-yl)-ethylcarbamoyl]-ethyl}-benzamide] and `CS(=O)(=O)NCc1ccc(C(=O)N[C@@H](CC2CCCCC2)C(=O)NCCN2CCc3cc(F)ccc32)cc1` [Compound 79, N-(S)-{2-cyclohexyl-1-[2-(5-fluoro-2,3-dihydro-indol-1-yl)-ethylcarbamoyl]-ethyl}-4-(methanesulfonylamino-methyl)-benzamide] cannot be ordered by Ki: under 1000 nM for the first, under 100 nM for the second.

`C[C@@H](CN1CCc2cc(F)ccc21)NC(=O)[C@H](CC1CCCCC1)NC(=O)OCc1ccccc1` [Compound 174, {2-Cyclohexyl-1-(S)-[2-(5-fluoro-2,3-dihydro-indol-1-yl)-1-(S)-methyl-ethylcarbamoyl]-ethyl}-carbamic acid benzyl ester] and `C[C@@H](CNc1ccc(O)cc1)NC(=O)[C@H](CC1CCCCC1)NC(=O)c1ccc(-c2cccc(F)c2)o1` [Compound 125, 5-(3-Fluoro-phenyl)-fuiran-2-carboxylic acid {2-cyclohexyl-1-(S)-[2-(4-hydroxy-phenylamino)-1-(S)-methyl-ethylcarbamoyl]-ethyl}-amide] cannot be ordered by Ki: under 100 nM for the first, under 100 nM for the second.

`COc1cc(C)c(NC[C@H](C)NC(=O)[C@H](CC2CCCCC2)NC(=O)c2ccc(-c3cccc(F)c3)o2)c(C)c1` [Compound 114, 5-(3-Fluoro-phenyl)-furan-2-carboxylic acid {2-cyclohexyl-1-(S)-[2-(4-methoxy-2,6-dimethyl-phenylamino)-1-(S)-methyl-ethylcarbamoyl]-ethyl}-amide] and `C[C@@H](CNc1ccc(OC(F)(F)F)cc1)NC(=O)[C@H](CC1CCCCC1)NC(=O)c1cc(-c2ccc(F)cc2)no1` [Compound 146, 3-(4-Fluoro-phenyl)-isoxazole-5-carboxylic acid {2-cyclohexyl-1-(S)-[1-(S)-methyl-2-(4-trifluoromethoxy-phenylamino)-ethylcarbamoyl]-ethyl}-amide] cannot be ordered by Ki: under 100 nM for the first, under 100 nM for the second.

`CC(C)(C)C[C@H](NC(=O)OC(C)(C)C)C(=O)N[C@@H](CC#N)CN1CCc2cc(F)ccc21` [Compound 164, {1-(S)-[2-Cyano-1-(S)-(5-fluoro-2,3-dihydro-indol-1-ylmethyl)-ethylcarbamoyl]-3,3-dimethyl-butyl}-carbamic acid tert-butyl ester] and `O=C(NC(C(=O)NC(CO)CN1CCc2cc(F)ccc21)c1ccc(Cl)cc1Cl)c1ccco1` [Compound 212, N-(S)-((3-(5-fluoroindolin-1-yl)-1-hydroxypropan-2-(R)-ylcarbamoyl)(2,4-dichlorophenyl)methyl) furan-2-carboxamide] cannot be ordered by Ki: under 1000 nM for the first, under 1000 nM for the second.

In the case of `O=C(NC(C(=O)N[C@@H](CO)CN1CCc2cc(F)ccc21)c1ccc(Cl)cc1Cl)c1ccc(F)c(F)c1` (mixture of isomers) [Compound 208, N-(R,S)-((3-(5-fluoroindolin-1-yl)-1-hydroxypropan-2-(R)-ylcarbamoyl)(2,4-dichlorophenyl)methyl)-3,4-difluorobenzamide], the Ki is reported as under 100 nM.
